Columns and labels:
human cathepsin F = biological target: T1, human cathepsin F (Homo sapiens, UniProt Q9UBX1); assay: Cathepsin F assay (hCat F); type: biochemical; conditions: human cathepsin F 10 nM, Z-Phe-Arg-AMC 8 μM, pH 5.5, 15 min preincubation; read-out: hCat F IP
T1 sequence (Q9UBX1 271-484): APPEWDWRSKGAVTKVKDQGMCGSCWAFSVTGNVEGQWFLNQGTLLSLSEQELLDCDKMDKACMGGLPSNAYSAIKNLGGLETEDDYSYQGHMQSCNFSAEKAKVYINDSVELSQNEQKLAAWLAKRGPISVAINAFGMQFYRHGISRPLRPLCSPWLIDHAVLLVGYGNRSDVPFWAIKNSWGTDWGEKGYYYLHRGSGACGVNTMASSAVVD
Method in brief: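 Human cathepsin F (10 nM) in 50 mM MES pH 5.5, 2.5 mM EDTA, 2.5 mM DTT, 10% DMSO was preincubated 15 min at RT with compounds from a ⅓ DMSO dilution series (500–0.025 μM stocks). Z-Phe-Arg-AMC was added (8 μM as added), and AMC release was read by fluorescence (360/460 nm) for 20 min. Percent inhibition was fitted to a dose-response model.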

human cathepsin K = human cathepsin K (UniProt P43236); assay: Cathepsin K Assay (hrbCat K); type: biochemical; conditions: human cathepsin K 0.4 nM, Z-Leu-Arg-AMC 8 μM, pH 5.5, 15 min preincubation; read-out: hrbCat K IP
Method in brief: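 Human cathepsin K (0.4 nM) in pH 5.5 MES buffer with EDTA, DTT and 10% DMSO was preincubated 15 min at room temperature with compound from a ⅓ dilution series (500-0.025 μM DMSO stocks). Z-Leu-Arg-AMC (8 μM) was then added, and AMC release was followed fluorometrically (Ex 360/Em 460 nm) for 30 min; inhibition was fitted to a dose-response model.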

| Compound | IC50 (human cathepsin F) [nM] | IC50 (human cathepsin K) [nM] |
| --- | --- | --- |
| N#CC1(NC(=O)[C@@H]2CCCC[C@H]2c2oc(-c3ccncc3F)nc2-c2ccc(N3CCS(=O)(=O)CC3)cc2)CC1 [Example 30, (1R,2R)-N-(1-cyanocyclopropyl)-2-(4-(4-(1,1-dioxidothiomorpholino)phenyl)-2-(3-fluoropyridin-4-yl)oxazol-5-yl)cyclohcxanecarboxamide] | 757 | 0.43 |
| N#CC1(NC(=O)[C@@H]2CCCC[C@H]2c2oc(C(F)(F)c3ccccc3)nc2-c2ccc(N3CCS(=O)(=O)CC3)cc2)CC1 [Example 130, (1R,2R)-N-(1-cyanocyclopropyl)-2-(2-(difluoro(phenyl)methyl)-4-(4-(1,1-dioxidothiomorpholino)phenyl)oxazol-5-yl)cyclohexanecarboxamide] | 70 | 1.25 |
| CC(C#N)NC(=O)[C@@H]1CCCC[C@H]1c1oc(-c2ccc(F)cc2)nc1-c1ccc(N2CCS(=O)(=O)CC2)cc1 (single isomer, unassigned) [Example 121, (1R,2R)-N-((R or S)-1-cyanoethyl)-2-(4-(4-(1,1-dioxidothiomorpholino)phenyl)-2-(4-fluorophenyl)oxazol-5-yl)cyclohexanecarboxamide] | ≥ 10000 | 24.1 |
| N#CC1(NC(=O)[C@@H]2CCCC[C@H]2c2sc(C(F)(F)F)nc2-c2ccc(N3CCS(=O)(=O)CC3)cc2)CC1 [Example 60, (1R,2R)-N-(1-cyanocyclopropyl)-2-(4-(4-(1,1-dioxidothiomorpholino)phenyl)-2-(trifluoromethyl)thiazol-5-yl)cyclohexanecarboxamide] | 3290 | 4.37 |
| N#CC1(NC(=O)[C@@H]2CC(F)(F)CC[C@H]2c2oc(-c3ccc(F)cc3)nc2-c2ccc(C(=O)N3CCOCC3)cc2)CC1 [Example 24, (1R,2R)-N-(1-cyanocyclopropyl)-5,5-difluoro-2-(2-(4-fluorophenyl)-4-(4-(morpholine-4-carbonyl)phenyl)oxazol-5-yl)cyclohexanecarboxamide] | 181 | 0.68 |
| N#CC1(NC(=O)[C@@H]2CC3CC3C[C@H]2c2oc(-c3ccc(F)cn3)nc2-c2ccc(N3CCS(=O)(=O)CC3)cc2)CC1 (single isomer, unassigned) [Example 8, (1S,3R,4R,6R or 1R,3R,4R,6S)-N-(1-Cyanocyclopropyl)-4-(4-(4-(1,1-dioxidothiomorpholino)phenyl)-2-(5-fluoropyridin-2-yl)oxazol-5-yl)bicyclo[4.1.0]heptane-3-carboxamidc] | 1620 | 9.56 |
| N#CC1(NC(=O)[C@@H]2CCCC[C@H]2c2oc(-c3ccccc3OC(F)F)nc2-c2ccc(N3CCS(=O)(=O)CC3)cc2)CC1 [Example 96, (1R,2R)-N-(1-cyanocyclopropyl)-2-(2-(2-(difluoromethoxy)phenyl)-4-(4-(1,1-dioxidothiomorpholino)phenyl)oxazol-5-yl)cyclohexanecarboxamide] | 363 | 0.87 |
| N#CC1(NC(=O)[C@@H]2CCCC[C@H]2c2oc(-c3ccc(C4CC4)cc3)nc2-c2ccc(N3CCS(=O)(=O)CC3)cc2)CC1 [Example 101, (1R,2R)-N-(1-cyanocyclopropyl)-2-(2-(4-cyclopropylphenyl)-4-(4-(1,1-dioxidothiomorpholino)phenyl)oxazol-5-yl)cyclohexanecarboxamide] | 377 | 0.88 |
| Cc1nc(-c2ccc(N3CC(S(C)(=O)=O)C3)cc2)c([C@@H]2CCCC[C@H]2C(=O)NC2(C#N)CC2)s1 [Example 55, (1R,2R)-N-(1-cyanocyclopropyl)-2-(2-mcthyl-4-(4-(3-(methylsulfonyl)azetidin-1-yl)phenyl)thiazol-5-yl)cyclohexanecarboxamide] | 5480 | 4.15 |
| COC1CC(c2nc(-c3ccc(N4CCS(=O)(=O)CC4)cc3)c([C@@H]3CCCC[C@H]3C(=O)NC3(C#N)CC3)o2)C1 (mixture of isomers) [Example 117, (1R,2R)-N-(1-cyanocyclopropyl)-2-(4-(4-(1,1-dioxidothiomorpholino)phenyl)-2-((1R,3R and 1S,3S)-3-methoxycyclobutyl)oxazol-5-yl)cyclohexanecarboxamide] | 2240 | 1.46 |
| N#CC1(NC(=O)[C@@H]2C[C@@H](F)CC[C@H]2c2oc(-c3ccc(F)cc3)nc2-c2ccc(N3CCS(=O)(=O)CC3)cc2)CC1 [Example 31, (1R,2R,5S)-N-(1-cyanocyclopropyl)-2-(4-(4-(1,1-dioxidothiomorpholino)phenyl)-2-(4-fluorophenyl)oxazol-5-yl)-5-fluorocyclohexane-carboxamide] | 1390 | 0.61 |

The remaining compounds from weak to strong by IC50 (human cathepsin F), led by results:

| IC50 (human cathepsin F) [nM] | IC50 (human cathepsin K) [nM] | Compound |
| --- | --- | --- |
| 1520 | 1.7 | N#CC1(NC(=O)[C@@H]2CCCC[C@H]2c2oc(C3CCC(F)(F)C3)nc2-c2ccc(N3CCS(=O)(=O)CC3)cc2)CC1 (mixture of isomers) [Example 114, (1R,2R)-N-(1-cyanocyclopropyl)-2-(2-((R and S)-3,3-difluorocyclopentyl)-4-(4-(1,1-dioxidothiomorpholino)phenyl)oxazol-5-yl)cyclohexanecarboxamide] |
| 1490 | 1.42 | Cc1ncc(-c2nc(-c3ccc(N4CCS(=O)(=O)CC4)cc3)c([C@@H]3CCCC[C@H]3C(=O)NC3(C#N)CC3)o2)s1 [Example 73, (1R,2R)-N-(1-cyanocyclopropyl)-2-(4-(4-(1,1-dioxidothiomorpholino)phenyl)-2-(2-methylthiazol-5-yl)oxazol-5-yl)cyclohexanecarboxamide] |
| 1090 | 3 | N#CC(NC(=O)[C@@H]1CC(F)(F)CC[C@H]1c1oc(C(F)(F)C(F)(F)F)nc1-c1ccc(C(=O)N2CCOCC2)cc1)C1CCOCC1 (single isomer, unassigned) [Example 145, (1R,2R)-N-((S or R)-cyano(tetrahydro-2H-pyran-4-yl)methyl)-5,5-difluoro-2-(4-(4-(morpholine-4-carbonyl)phenyl)-2-(perfluoroethyl)oxazol-5-yl)cyclohcxanecarboxamide] |
| 865 | 2.06 | N#CC1(NC(=O)[C@@H]2CCCC[C@H]2c2oc(-c3ccccc3Cl)nc2-c2ccc(N3CCS(=O)(=O)CC3)cc2)CC1 [Example 75, (1R,2R)-2-(2-(2-chlorophenyl)-4-(4-(1,1-dioxidothiomorpholino)phenyl)oxazol-5-yl)-N-(1-cyanocyclopropyl) cyclohexanecarboxamide] |
| 750 | 1.49 | COc1ccccc1-c1nc(-c2ccc(N3CCS(=O)(=O)CC3)cc2)c([C@@H]2CCCC[C@H]2C(=O)NC2(C#N)CC2)o1 [Example 72, (1R,2R)-N-(1-cyanocyclopropyl)-2-(4-(4-(1,1-dioxidothiomorpholino)phenyl)-2-(2-methoxyphenyl)oxazol-5-yl)cyclohexanecarboxamide] |
| 645 | 1.46 | N#Cc1ccc(-c2nc(-c3ccc(N4CCS(=O)(=O)CC4)cc3)c([C@@H]3CCCC[C@H]3C(=O)NC3(C#N)CC3)o2)cc1 [Example 74, (1R,2R)-N-(1-cyanocyclopropyl)-2-(2-(4-cyanophenyl)-4-(4-(1,1-dioxidothiomorpholino)phenyl)oxazol-5-yl)cyclohexanecarboxamide] |
| 573 | 1.04 | N#CC1(NC(=O)[C@@H]2CCCC[C@H]2c2oc(-c3ccc(OC(F)F)cc3)nc2-c2ccc(N3CCS(=O)(=O)CC3)cc2)CC1 [Example 64, (1R,2R)-N-(1-cyanocyclopropyl)-2-(2-(4-(difluoromethoxy)phenyl)-4-(4-(1,1-dioxidothiomorpholino)phenyl)oxazol-5-yl)cyclohexanecarboxamide] |
| 472 | 2.13 | CC(C)C(C#N)NC(=O)[C@@H]1CCCC[C@H]1c1oc(-c2ccc(F)cc2)nc1-c1ccc(N2CCS(=O)(=O)CC2)cc1 (single isomer, unassigned) [Example 123, (1R,2R)-N-((S or R)-1-cyano-2-methylpropyl)-2-(4-(4-(1,1-dioxidothiomorpholino)phenyl)-2-(4-fluorophenyl)oxazol-5-yl)cyclohexanecarboxamide] |
| 353 | 0.72 | N#CC1(NC(=O)[C@@H]2CCCC[C@H]2c2oc(-c3ccc(F)cc3Cl)nc2-c2ccc(N3CCS(=O)(=O)CC3)cc2)CC1 [Example 37, (1R,2R)-2-(2-(2-chloro-4-fluorophenyl)-4-(4-(1,1-dioxidothiomorpholino)phenyl)oxazol-5-yl)-N-(1-cyanocyclopropyl) cyclohexanecarboxamide] |
| 280 | 1.03 | CC(C)[C@@H](C#N)NC(=O)[C@@H]1CC(F)(F)CC[C@H]1c1oc(C(F)(F)C(F)(F)F)nc1-c1ccc(C(=O)N2CCOCC2)cc1 [Example 148, (1R,2R)-N-((S)-1-cyano-2-methylpropyl)-5,5-difluoro-2-(4-(4-(morpholine-4-carbonyl)phenyl)-2-(perfluoroethyl)oxazol-5-yl)cyclohexanecarboxamide] |
| 179 | 2.41 | N#C[C@@H](NC(=O)[C@@H]1CCCC[C@H]1c1oc(-c2ccc(F)cc2)nc1-c1ccc(N2CCS(=O)(=O)CC2)cc1)C1CCCCC1 [Example 156, (1R,2R)-N-((S)-cyano(cyclohexyl)methyl)-2-(4-(4-(1,1-dioxidothiomorpholino)phenyl)-2-(4-fluorophenyl)oxazol-5-yl)cyclohexanecarboxamide] |

Reference: patent US9458181B2, “Cathepsin cysteine protease inhibitors” (Merck Sharp & Dohme Corp., priority 2013, dated 2016)
